Laboratory results: patent US12617783B2, “Heterocyclic GLP-1R agonists” (BIOMEA FUSION, INC., priority 2024, dated 2026)

Biological target: T1, human GLP-1R (Homo sapiens, UniProt P43220)
T1 construct: host or cells: HEK293
Experiment: GLP-1R cAMP assay (Example B1a, HTRF, 30 min at room temperature)
Format: cell-based
Conditions: cAMP accumulation in HEK293 expressing human GLP-1R, no BETP, 30 min room temperature (Method B1a, compounds ID 1-609), Table 1; read-out: EC50
Summary of the method: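 Competitive HTRF read-out of cAMP after 30 min room-temperature stimulation, BETP absent, of human GLP-1R-HEK293 cells (1,000/well) in HEPES buffer with 500 μM IBMX and 0.1% BSA. Activation normalised to GLP-1(7-37) positive control. EC50 from 4-parameter non-linear regression.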

T1 sequence (P43220 24-463): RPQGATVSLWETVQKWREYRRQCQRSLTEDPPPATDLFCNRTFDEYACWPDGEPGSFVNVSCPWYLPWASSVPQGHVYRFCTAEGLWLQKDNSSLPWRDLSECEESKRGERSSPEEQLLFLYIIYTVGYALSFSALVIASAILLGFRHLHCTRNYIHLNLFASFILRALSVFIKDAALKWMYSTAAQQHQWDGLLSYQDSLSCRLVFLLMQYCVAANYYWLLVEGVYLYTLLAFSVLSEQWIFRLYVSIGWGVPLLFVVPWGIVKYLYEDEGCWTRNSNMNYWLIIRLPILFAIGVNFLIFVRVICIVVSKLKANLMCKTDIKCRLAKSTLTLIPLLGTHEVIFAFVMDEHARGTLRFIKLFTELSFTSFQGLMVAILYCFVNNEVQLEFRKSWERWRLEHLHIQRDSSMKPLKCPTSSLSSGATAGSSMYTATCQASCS

Row | SMILES | EC50 [µM]
1 | Cc1cc(-n2nc3c(c2-n2ccn(-c4ccc5c(cnn5C)c4F)c2=O)[C@@H]2CC[C@H](C3)N2C(=O)c2cc3cc(N4CCOC(C)(C)C4)ccc3n2[C@@]2(c3noc(=O)[nH]3)C[C@@H]2C)cc(C)c1F [Compound 229, 3-((1S,2S)-1-(5-(2,2-dimethylmorpholino)-2-((4S,7R)-3-(3-(4-fluoro-1-methyl-1H-indazol-5-yl)-2-oxo-2,3-dihydro-1H-imidazol-1-yl)-2-(4-fluoro-3,5-dimethylphenyl)-2,4,5,6,7,8-hexahydro-4,7-epiminocyclohepta [c]pyrazole-9-carbonyl)-1H-indol-1-yl)-2-methylcyclopropyl)-1,2,4-oxadiazol-5 (4H)-one] | 0.167
2 | Cc1cc(-n2nc3c(c2-n2ccn(-c4ccc5c(cnn5C)c4Cl)c2=O)[C@@H]2COC[C@H](C3)N2C(=O)c2cc3cc(C4CCOC5(CC5)C4)ccc3n2[C@@]2(c3noc(=O)[nH]3)C[C@@H]2C)cc(C)c1F (stereo partly drawn) [Compound 230, 3-[(1S,2S)-1-[2-[(1R,8S)-3-[3-(4-chloro-1-methyl-indazol-5-yl)-2-oxo-imidazol-1-yl]-4-(4-fluoro-3,5-dimethyl-phenyl)-10-oxa-4,5,12-triazatricyclo[6.3.1.02,6]dodeca-2,5-diene-12-carbonyl]-5-(4-oxaspiro[2.5]octan-7-yl)indol-1-yl]-2-methyl-cyclopropyl]-4H-1,2,4-oxadiazol-5-one] | 0.389
3 | Cc1cc(-n2nc3c(c2-n2ccn(-c4ccc5c(cnn5C)c4F)c2=O)[C@@H]2CC[C@H](C3)N2C(=O)c2cc3c(=O)n(C4CCOC(C)(C)C4)ccc3n2[C@@]2(c3noc(=O)[nH]3)C[C@@H]2C)cc(C)c1F (stereo partly drawn) [Compound 231, 3-[(1S,2S)-1-[5-(2,2-dimethyltetrahydropyran-4-yl)-2-[(1S,8R)-4-(4-fluoro-3,5-dimethyl-phenyl)-3-[3-(4-fluoro-1-methyl-indazol-5-yl)-2-oxo-imidazol-1-yl]-4,5,11-triazatricyclo[6.2.1.02,6]undeca-2,5-diene-11-carbonyl]-4-oxo-pyrrolo[3,2-c]pyridin-1-yl]-2-methyl-cyclopropyl]-4H-1,2,4-oxadiazol-5-one] | > 10
4 | Cc1cc(-n2nc3c(c2-n2ccn(-c4ccc5c(cnn5C)c4F)c2=O)[C@@H]2CC[C@H](C3)N2C(=O)c2cc3c(OC4CCOC(C)(C)C4)nccc3n2[C@@]2(c3noc(=O)[nH]3)C[C@@H]2C)cc(C)c1F (stereo partly drawn) [Compound 232, 3-[(1S,2S)-1-[4-(2,2-dimethyltetrahydropyran-4-yl)oxy-2-[(1S,8R)-4-(4-fluoro-3,5-dimethyl-phenyl)-3-[3-(4-fluoro-1-methyl-indazol-5-yl)-2-oxo-imidazol-1-yl]-4,5,11-triazatricyclo[6.2.1.02,6]undeca-2,5-diene-11-carbonyl]pyrrolo[3,2-c]pyridin-1-yl]-2-methyl-cyclopropyl]-4H-1,2,4-oxadiazol-5-one] | > 10
5 | Cc1cc(-n2nc3c(c2N2C(=O)CN(c4ccc5c(cnn5C)c4F)C2=O)[C@H]2CC[C@@H](C3)N2C(=O)c2cc3cc([C@H]4CCOC(C)(C)C4)ccc3n2[C@@]2(c3noc(=O)[nH]3)C[C@@H]2C)cc(C)c1F [Compound 234, 3-[(1R,8S)-11-[5-[(4S)-2,2-dimethyltetrahydropyran-4-yl]-1-[(1S,2S)-2-methyl-1-(5-oxo-4H-1,2,4-oxadiazol-3-yl)cyclopropyl]indole-2-carbonyl]-4-(4-fluoro-3,5-dimethyl-phenyl)-4,5,11-triazatricyclo[6.2.1.02,6]undeca-2,5-dien-3-yl]-1-(4-fluoro-1-methyl-indazol-5-yl)imidazolidine-2,4-dione] | > 10
6 | Cc1cc(-n2nc3c(c2-n2ccn(-c4cc(F)c5c(cnn5C)c4F)c2=O)[C@@H]2CC[C@H](C3)N2C(=O)c2cc3cc([C@H]4CCOC(C)(C)C4)ccc3n2[C@@]2(c3noc(=O)[nH]3)C[C@@H]2C)cc(C)c1F [Compound 235, 3-[(1S,2S)-1-[2-[(1S,8R)-3-[3-(4,7-difluoro-1-methyl-indazol-5-yl)-2-oxo-imidazol-1-yl]-4-(4-fluoro-3,5-dimethyl-phenyl)-4,5,11-triazatricyclo[6.2.1.02,6]undeca-2,5-diene-11-carbonyl]-5-[(4S)-2,2-dimethyltetrahydropyran-4-yl]indol-1-yl]-2-methyl-cyclopropyl]-4H-1,2,4-oxadiazol-5-one] | 0.459
7 | Cc1cc(-n2nc3c(c2-n2ccn(-c4cc(F)c5c(cnn5C)c4F)c2=O)[C@@H]2CC[C@H](C3)N2C(=O)c2cc3cc([C@H]4CCOC(C)(C)C4)ncc3n2[C@@]2(c3noc(=O)[nH]3)C[C@@H]2C)cc(C)c1F [Compound 236, 3-[(1S,2S)-1-[2-[(1S,8R)-3-[3-(4,7-difluoro-1-methyl-indazol-5-yl)-2-oxo-imidazol-1-yl]-4-(4-fluoro-3,5-dimethyl-phenyl)-4,5,11-triazatricyclo[6.2.1.02,6]undeca-2,5-diene-11-carbonyl]-5-[(4S)-2,2-dimethyltetrahydropyran-4-yl]pyrrolo[2,3-c]pyridin-1-yl]-2-methyl-cyclopropyl]-4H-1,2,4-oxadiazol-5-one] | 0.785
8 | Cc1cc(-n2nc3c(c2-n2ccn(-c4ccc5c(cnn5C)c4F)c2=O)[C@@H]2CC[C@H](C3)N2C(=O)c2cc3c(=O)n([C@H]4CCOC(C)(C)C4)ccc3n2[C@@]2(c3noc(=O)[nH]3)C[C@@H]2C)cc(C)c1F [Compound 238, 3-[(1S,2S)-1-[5-[(4S)-2,2-dimethyltetrahydropyran-4-yl]-2-[(1S,8R)-4-(4-fluoro-3,5-dimethyl-phenyl)-3-[3-(4-fluoro-1-methyl-indazol-5-yl)-2-oxo-imidazol-1-yl]-4,5,11-triazatricyclo[6.2.1.02,6]undeca-2,5-diene-11-carbonyl]-4-oxo-pyrrolo[3,2-c]pyridin-1-yl]-2-methyl-cyclopropyl]-4H-1,2,4-oxadiazol-5-one] | > 10
9 | Cc1cc(-n2nc3c(c2-n2ccn(-c4ccc5c(cnn5C)c4F)c2=O)[C@@H]2CC[C@H](C3)N2C(=O)c2cc3c(=O)n([C@@H]4CCOC(C)(C)C4)ccc3n2[C@@]2(c3noc(=O)[nH]3)C[C@@H]2C)cc(C)c1F [Compound 239, 3-[(1S,2S)-1-[5-[(4R)-2,2-dimethyltetrahydropyran-4-yl]-2-[(1S,8R)-4-(4-fluoro-3,5-dimethyl-phenyl)-3-[3-(4-fluoro-1-methyl-indazol-5-yl)-2-oxo-imidazol-1-yl]-4,5,11-triazatricyclo[6.2.1.02,6]undeca-2,5-diene-11-carbonyl]-4-oxo-pyrrolo[3,2-c]pyridin-1-yl]-2-methyl-cyclopropyl]-4H-1,2,4-oxadiazol-5-one] | > 10
10 | Cc1cc(-n2nc3c(c2-n2ccn(-c4ccc5c(cnn5C)c4F)c2=O)[C@@H]2CC[C@H](C3)N2C(=O)c2cc3cc([C@H]4CCOC(C)(C)C4)ccc3n2[C@@]2(C(=O)N(C)C)C[C@@H]2C)cc(C)c1F [Compound 240, cis-(1S,2S)-1-[5-[(4S)-2,2-dimethyltetrahydropyran-4-yl]-2-[(1S,8R)-4-(4-fluoro-3,5-dimethyl-phenyl)-3-[3-(4-fluoro-1-methyl-indazol-5-yl)-2-oxo-imidazol-1-yl]-4,5,11-triazatricyclo[6.2.1.02,6]undeca-2,5-diene-11-carbonyl]indol-1-yl]-N,N,2-trimethyl-cyclopropanecarboxamide] | 0.618
11 | Cc1cc(-n2nc3c(c2-n2ccn(-c4ccc5c(cnn5C)c4F)c2=O)[C@@H]2CC[C@H](C3)N2C(=O)c2cc3cc([C@H]4CCOC(C)(C)C4)ccc3n2[C@@]2(CNC(=O)CO)C[C@@H]2C)cc(C)c1F [Compound 241, N-[[(1S,2S)-1-[5-[(4S)-2,2-dimethyltetrahydropyran-4-yl]-2-[(1S,8R)-4-(4-fluoro-3,5-dimethyl-phenyl)-3-[3-(4-fluoro-1-methyl-indazol-5-yl)-2-oxo-imidazol-1-yl]-4,5,11-triazatricyclo[6.2.1.02,6]undeca-2,5-diene-11-carbonyl]indol-1-yl]-2-methyl-cyclopropyl]methyl]-2-hydroxy-acetamide] | 0.641
12 | Cc1cc(-n2nc3c(c2-n2ccn(-c4cc(F)c5c(cnn5C)c4F)c2=O)[C@@H]2COC[C@H](C3)N2C(=O)c2cc3cc(C4CCOC5(CC5)C4)ccc3n2[C@@]2(c3noc(=O)[nH]3)C[C@@H]2C)cc(C)c1F (stereo partly drawn) [Compound 242, 3-((1S,2S)-1-(2-((4R,8S)-3-(3-(4,7-difluoro-1-methyl-1H-indazol-5-yl)-2-oxo-2,3-dihydro-1H-imidazol-1-yl)-2-(4-fluoro-3,5-dimethylphenyl)-2,4,5,7,8,9-hexahydro-4,8-epiminooxocino [5,4-c]pyrazole-10-carbonyl)-5-(4-oxaspiro[2.5]octan-7-yl)-1H-indol-1-yl)-2-methylcyclopropyl)-1,2,4-oxadiazol-5 (4H)-one] | 0.168
13 | CC(=O)NC[C@]1(n2c(C(=O)N3[C@@H]4CC[C@H]3c3c(nn(-c5cc(C)c(F)c(C)c5)c3-n3ccn(-c5ccc6c(cnn6C)c5F)c3=O)C4)cc3cc([C@H]4CCOC(C)(C)C4)ccc32)C[C@@H]1C [Compound 243, N-[[(1S,2S)-1-[5-[(4S)-2,2-dimethyltetrahydropyran-4-yl]-2-[(1S,8R)-4-(4-fluoro-3,5-dimethyl-phenyl)-3-[3-(4-fluoro-1-methyl-indazol-5-yl)-2-oxo-imidazol-1-yl]-4,5,11-triazatricyclo[6.2.1.02,6]undeca-2,5-diene-11-carbonyl]indol-1-yl]-2-methyl-cyclopropyl]methyl]acetamide] | 0.757
14 | CNC(=O)[C@]1(n2c(C(=O)N3[C@@H]4CC[C@H]3c3c(nn(-c5cc(C)c(F)c(C)c5)c3-n3ccn(-c5ccc6c(cnn6C)c5F)c3=O)C4)cc3cc([C@H]4CCOC(C)(C)C4)ccc32)C[C@@H]1C [Compound 244, cis-(1S,2S)-1-[5-[(4S)-2,2-dimethyltetrahydropyran-4-yl]-2-[(1S,8R)-4-(4-fluoro-3,5-dimethyl-phenyl)-3-[3-(4-fluoro-1-methyl-indazol-5-yl)-2-oxo-imidazol-1-yl]-4,5,11-triazatricyclo[6.2.1.02,6]undeca-2,5-diene-11-carbonyl]indol-1-yl]-N,2-dimethyl-cyclopropanecarboxamide] | 0.39
